Data reported in ChEMBL document CHEMBL1157189, “S-Ribosylhomocysteine analogues with the carbon-5 and sulfur atoms replaced by a vinyl or (fluoro)vinyl unit” (Bioorg Med Chem, 2008).

Test system: Bacillus subtilis
Experiment: Inhibition of CO2+ substituted Bacillus subtilis S-ribosyl-homocysteinase

Question: For `O[C@@H]1C[C@@H](/C=C/F)O[C@@H]1O` (mixture of isomers), which Ki is on record?
Answer: The Ki was 96 µM.
